Literature values, collected in patent US20140271465A1, “MATRIX METALLOPROTEASE (MMP) TARGETED AGENTS FOR IMAGING AND THERAPY” (Mallinckrodt LLC, priority 2013, published 2014).

Columns and labels:
[1] = biological target: T1, rhMMP2 (Homo sapiens, UniProt P08253); conditions: control compound, vendor description
T1 construct: purchased R&D Systems 902-MP
T1 sequence (P08253 110-660): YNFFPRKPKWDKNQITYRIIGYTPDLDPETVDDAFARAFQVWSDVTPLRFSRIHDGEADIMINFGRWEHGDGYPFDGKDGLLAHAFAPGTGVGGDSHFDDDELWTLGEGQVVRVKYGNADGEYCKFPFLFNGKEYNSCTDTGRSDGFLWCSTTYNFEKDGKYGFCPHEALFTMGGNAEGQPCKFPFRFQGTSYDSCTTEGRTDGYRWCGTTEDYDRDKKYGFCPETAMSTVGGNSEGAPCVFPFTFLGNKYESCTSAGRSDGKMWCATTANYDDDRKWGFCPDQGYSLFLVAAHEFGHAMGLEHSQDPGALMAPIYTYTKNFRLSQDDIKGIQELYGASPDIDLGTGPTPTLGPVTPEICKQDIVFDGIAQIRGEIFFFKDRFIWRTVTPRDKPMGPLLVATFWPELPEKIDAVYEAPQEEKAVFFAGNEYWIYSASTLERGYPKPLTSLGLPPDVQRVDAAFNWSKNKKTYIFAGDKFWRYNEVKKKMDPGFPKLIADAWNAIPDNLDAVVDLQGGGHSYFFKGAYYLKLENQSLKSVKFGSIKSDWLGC

[2] = biological target: T2, rhMMP14 (Homo sapiens, UniProt P50281); conditions: control compound, vendor description
T2 construct: purchased R&D Systems 918-MP

SMILES	Inhibition of MMP-2 (control description) [1]	Inhibition of MMP-14 (control description) [2]
CC(C)ON(CC(=O)NO)S(=O)(=O)c1ccc(-c2ccccc2)cc1 [ARP100]	selective MMP-2 inhibitor	poor inhibitor for MMP-14
CNC(=O)[C@H](Cc1ccccc1)NC(=O)[C@H](CC(C)C)[C@H](CSc1cccs1)C(=O)NO [Batimastat]	low nM levels	low nM levels
